{"source": "paper PMC7265429", "about": "“Characterization of a new small-molecule inhibitor of HDAC6 in glioblastoma” (Cell Death & Disease, 2020)", "system": "GNS166 cells", "assay": "Microarray whole-transcriptome gene expression analysis", "format": "cell-based, human", "settings": "5 µM SAHA vs DMSO", "method": "Whole-transcriptome analysis was performed from 300 ng of RNA using HuGene-2_0-st-v1 expression array (Affymetrix), which covers 48,226 transcripts. Raw data were first checked for quality purposes through the Affymetrix® Expression Console™ Software v1.4.1 and TAC software v4.0. Then, data were normalized using the Robust Multi-array Average (RMA) and analyzed by Limma tool. Probesets with FDR-corrected p-values smaller than 0.05 were selected. Functional enrichment on Gene Ontology (GO) biological processes was performed on a smaller subset of the differentially expressed genes (corrected p-value < 0.001) by means of Broad Institute GSEA. […] The data that support this study have been deposited in NCBI´s Gene Expression Omnibus and are accessible through GEO series accession number GSE143887.", "data": [{"smiles": "O=C(CCCCCCC(=O)Nc1ccccc1)NO", "note": "[SAHA, Suberoylanilide hydroxamic acid]", "values": [{"measurement": "logFC, unannotated transcript", "setting": "transcript 23067838", "result": 2.48}, {"measurement": "logFC, unannotated transcript", "setting": "transcript 23070274", "result": 1.496}, {"measurement": "logFC, unannotated transcript", "setting": "transcript 23074046", "result": 2.262}, {"measurement": "logFC, unannotated transcript", "setting": "transcript 23076255", "result": 1.316}, {"measurement": "logFC, unannotated transcript", "setting": "transcript 23076621", "result": 1.363}, {"measurement": "logFC CLCN4", "setting": "transcript TC0X00006593.hg.1", "result": 1.5774}, {"measurement": "logFC GRPR", "setting": "transcript TC0X00006686.hg.1", "result": 2.105}, {"measurement": "logFC CNKSR2", "setting": "transcript TC0X00006758.hg.1", "result": 1.439}, {"measurement": "logFC TCEAL2", "setting": "transcript TC0X00007965.hg.1", "result": 1.805}, {"measurement": "logFC CXorf57", "setting": "transcript TC0X00008052.hg.1", "result": 2.567}, {"measurement": "logFC RNF128", "setting": "transcript TC0X00008054.hg.1", "result": 2.588}, {"measurement": "logFC TBC1D8B", "setting": "transcript TC0X00008055.hg.1", "result": 1.963}, {"measurement": "logFC BCORL1", "setting": "transcript TC0X00008394.hg.1", "result": 1.89}, {"measurement": "logFC SPANXB1", "setting": "transcript TC0X00008599.hg.1", "result": 3.183}, {"measurement": "logFC SPANXA2", "setting": "transcript TC0X00008608.hg.1", "result": 1.528}, {"measurement": "logFC GABRQ", "setting": "transcript TC0X00008747.hg.1", "result": 2.318}, {"measurement": "logFC SPRY3", "setting": "transcript TC0X00008881.hg.1", "result": 1.925}, {"measurement": "logFC ANOS1", "setting": "transcript TC0X00009025.hg.1", "result": 2.202}, {"measurement": "logFC TMEM47", "setting": "transcript TC0X00009356.hg.1", "result": 2.2}, {"measurement": "logFC SYN1", "setting": "transcript TC0X00009576.hg.1", "result": 1.838}, {"measurement": "logFC SLC7A3", "setting": "transcript TC0X00009972.hg.1", "result": 2.306}, {"measurement": "logFC PCDH19", "setting": "transcript TC0X00010326.hg.1", "result": 2.715}, {"measurement": "logFC GPC3", "setting": "transcript TC0X00010851.hg.1", "result": 3.405}, {"measurement": "logFC SPANXC", "setting": "transcript TC0X00010990.hg.1", "result": 2.79}, {"measurement": "logFC TSPAN7", "setting": "transcript TC0X00011279.hg.1", "result": 3.632}, {"measurement": "logFC SPANXD", "setting": "transcript TC0X00011403.hg.1", "result": 2.719}, {"measurement": "logFC SPRY3", "setting": "transcript TC0Y00006855.hg.1", "result": 1.925}, {"measurement": "logFC AZIN2", "setting": "transcript TC0100007705.hg.1", "result": 2.1884}, {"measurement": "logFC SGIP1", "setting": "transcript TC0100008631.hg.1", "result": 2.667}, {"measurement": "logFC WDR63", "setting": "transcript TC0100008897.hg.1", "result": 2.0565}, {"measurement": "logFC PLPPR4", "setting": "transcript TC0100009181.hg.1", "result": 3.131}, {"measurement": "logFC RIIAD1", "setting": "transcript TC0100009969.hg.1", "result": 1.761}, {"measurement": "logFC RGS4", "setting": "transcript TC0100010393.hg.1", "result": 2.615}, {"measurement": "logFC RGL1", "setting": "transcript TC0100010874.hg.1", "result": 1.6746}, {"measurement": "logFC HMCN1", "setting": "transcript TC0100010921.hg.1", "result": 2.357}, {"measurement": "logFC PLA2G4A", "setting": "transcript TC0100010939.hg.1", "result": 2.146}, {"measurement": "logFC NFASC", "setting": "transcript TC0100011316.hg.1", "result": 2.226}, {"measurement": "logFC SYT14", "setting": "transcript TC0100011463.hg.1", "result": 1.552}, {"measurement": "logFC PADI2", "setting": "transcript TC0100013076.hg.1", "result": 2.104}, {"measurement": "logFC RAB3B", "setting": "transcript TC0100014191.hg.1", "result": 2.825}, {"measurement": "logFC EXTL2", "setting": "transcript TC0100015079.hg.1", "result": 1.8773}, {"measurement": "logFC TXNIP", "setting": "transcript TC0100015598.hg.1", "result": 1.6929}, {"measurement": "logFC TDRKH", "setting": "transcript TC0100015803.hg.1", "result": 1.45}, {"measurement": "logFC CRABP2", "setting": "transcript TC0100016018.hg.1", "result": 2.073}, {"measurement": "logFC TNFSF18", "setting": "transcript TC0100016427.hg.1", "result": 2.171}, {"measurement": "logFC NMNAT2", "setting": "transcript TC0100016649.hg.1", "result": 2.678}, {"measurement": "logFC KCNT2", "setting": "transcript TC0100016822.hg.1", "result": 1.691}, {"measurement": "logFC SUSD4", "setting": "transcript TC0100017446.hg.1", "result": 2.012}, {"measurement": "logFC CHML", "setting": "transcript TC0100017948.hg.1", "result": 2.064}, {"measurement": "logFC EFNA3", "setting": "transcript TC0100018303.hg.1", "result": 2.427}, {"measurement": "logFC CREG1", "setting": "transcript TC0100018528.hg.1", "result": 1.58}, {"measurement": "logFC ATP6V1C2", "setting": "transcript TC0200006703.hg.1", "result": 1.305}, {"measurement": "logFC DPYSL5", "setting": "transcript TC0200007047.hg.1", "result": 2.839}, {"measurement": "logFC CHAC2", "setting": "transcript TC0200007590.hg.1", "result": 1.314}, {"measurement": "logFC MERTK", "setting": "transcript TC0200008894.hg.1", "result": 2.244}, {"measurement": "logFC B3GALT1", "setting": "transcript TC0200009889.hg.1", "result": 2.683}, {"measurement": "logFC FAM171B", "setting": "transcript TC0200010219.hg.1", "result": 2.2716}, {"measurement": "logFC MAP2", "setting": "transcript TC0200010636.hg.1", "result": 3.414}, {"measurement": "logFC BCL11A", "setting": "transcript TC0200012713.hg.1", "result": 2.328}, {"measurement": "logFC PAIP2B", "setting": "transcript TC0200013021.hg.1", "result": 1.841}, {"measurement": "logFC KCNH7", "setting": "transcript TC0200014775.hg.1", "result": 2.8124}, {"measurement": "logFC SCN9A", "setting": "transcript TC0200014819.hg.1", "result": 2.356}, {"measurement": "logFC LRP2", "setting": "transcript TC0200014851.hg.1", "result": 2.542}, {"measurement": "logFC FKBP7", "setting": "transcript TC0200015082.hg.1", "result": 2.583}, {"measurement": "logFC CALCRL", "setting": "transcript TC0200015193.hg.1", "result": 2.705}, {"measurement": "logFC SLC40A1", "setting": "transcript TC0200015211.hg.1", "result": 1.178}, {"measurement": "logFC MSTN", "setting": "transcript TC0200015221.hg.1", "result": 1.434}, {"measurement": "logFC STAT4", "setting": "transcript TC0200015246.hg.1", "result": 1.771}, {"measurement": "logFC EPHA4", "setting": "transcript TC0200015815.hg.1", "result": 1.855}, {"measurement": "logFC ITPR1", "setting": "transcript TC0300006477.hg.1", "result": 1.259}, {"measurement": "logFC GRAMD1C", "setting": "transcript TC0300008371.hg.1", "result": 3.533}, {"measurement": "logFC STXBP5L", "setting": "transcript TC0300008524.hg.1", "result": 1.686}, {"measurement": "logFC TMEM108", "setting": "transcript TC0300008853.hg.1", "result": 1.4353}, {"measurement": "logFC PLS1", "setting": "transcript TC0300009033.hg.1", "result": 1.34}, {"measurement": "logFC MLF1", "setting": "transcript TC0300009310.hg.1", "result": 1.587}, {"measurement": "logFC SERPINI1", "setting": "transcript TC0300009412.hg.1", "result": 3.206}, {"measurement": "logFC GPR160", "setting": "transcript TC0300009459.hg.1", "result": 1.716}, {"measurement": "logFC VGLL3", "setting": "transcript TC0300011706.hg.1", "result": 1.982}, {"measurement": "logFC IGSF11", "setting": "transcript TC0300012109.hg.1", "result": 2.1969}, {"measurement": "logFC SLITRK3", "setting": "transcript TC0300013022.hg.1", "result": 1.701}, {"measurement": "logFC LAMP3", "setting": "transcript TC0300013336.hg.1", "result": 2.279}, {"measurement": "logFC CLDN1", "setting": "transcript TC0300013520.hg.1", "result": 1.599}, {"measurement": "logFC CEP19", "setting": "transcript TC0300013719.hg.1", "result": 1.62}, {"measurement": "logFC IFT80", "setting": "transcript TC0300014074.hg.1", "result": 1.3192}, {"measurement": "logFC CCDC39", "setting": "transcript TC0300014078.hg.1", "result": 2.854}, {"measurement": "logFC WDR19", "setting": "transcript TC0400007280.hg.1", "result": 1.361}, {"measurement": "logFC GABRB1", "setting": "transcript TC0400007419.hg.1", "result": 2.377}, {"measurement": "logFC CYP2U1", "setting": "transcript TC0400008347.hg.1", "result": 1.641}]}]}
